This is an account of results in patent US10562869B2, “Oxadiazole compounds” (REMYND NV, priority 2014, dated 2020).

The test has as its system M17_3SYN cells. The experiment in a line: Paraquat-induced cytotoxicity (LDH) in α-synuclein over-expressing M17_3SYN neuroblastoma cells. The note with it: Homo sapiens, Neuroblastoma cell, 48 h, toxicity inhibition (LDH) in M17_3SYN cells challenged with 6 mM paraquat, 2 days; read-out: SYN EC50. The class given is cell-based, human. The text has this:
A α-synuclein expression plasmid was constructed by subcloning the NcoI/XhoI fragment from 212T-SYN(WT) (Griffioen et al., Biochem Biophys Acta (2006) 1762(3):312-318) containing the cDNA of human wild type α-synuclein correspondingly into a standard mammalian expression vector pcDNA3.1 resulting in plasmid pcDNA3.1-SYNwt. Plasmids pcDNA3.1 and pcDNA3.1-SYNwt were transfected into human neuroblastoma cells (BE-M17; ATCC No. CRL-2267™) using lipofectamine reagent and subsequently, independent clonal cell lines with the plasmids stably integrated into the genome were selected by antibiotic resistance selection (Geneticin (G418)), resulting in cell lines M17.pcDNA3 and M17_3SYN. Overexpression of α-synuclein in the M17_3SYN cell line was confirmed by Western blot analysis.
Due to the high levels of α-synuclein, M17_3SYN cells were sensitive to paraquat, a well-known risk factor Parkinson's disease and of synuclein-dependent neuronal degeneration. Cytotoxicity of cells was measured by quantification of lactate dehydrogenase (LDH) levels. In dead cells, LDH leaked out of the cells into the medium due to a loss of plasma-membrane integrity.
[…], primary pre-cultures of M17.pcDNA3 (as possible control) and M17_3SYN cells were prepared, starting from a stock culture, at a density of 20.000-40.000 cells/cm2 in culture medium (Opti-MEM® Reduced Serum Medium with Phenol Red (Invitrogen, Cat. 31985-047) supplemented with 10% FCS, 1 mM sodium pyruvate, 1×NEAA, 500 μg/ml G418 and 0.5×antibiotic/antimycotic (ABAM)). 3 days later these primary pre-cultures were used as a starting point to make secondary pre-cultures at a density of 50.000-100.000 cells/cm^2. At the day of the experiment these secondary precultures were diluted to ˜0.5·10^6 cells/ml in detection medium (Opti-MEM® Reduced-Serum Medium without Phenol Red (Invitrogen, Cat. 11085-021) supplemented with 10% FCS, 1 mM sodium pyruvate, 1×NEAA, 500 μg/ml G418 and 0.5×ABAM) and 60 μL of this suspension was dispensed per well into a 96-well microtiter plate. After 3 hours of incubation at 37° C./5% CO2 an equal volume of detection medium containing a final concentration of 6 mM Paraquat was added and subsequently incubated for 2 days at 37° C./5% CO2. Then LDH activity was determined using the Promega Cytotox 96 Non-Radioactive cytotoxicity assay (Promega, Cat. G1780), according to the manufacturer's instructions. Cytotoxicity was defined as the ratio of LDH relative to the total LDH in the cells and supernatant.
The assay described above using the M17_3SYN cell line allowed screening compounds for their ability to decrease cytotoxicity in PQ-challenged cells. Compounds of the invention were tested for their ability to decrease toxicity at different concentrations, ranging from low non-effective concentrations to high effective concentrations. Afterwards, a dose-dependent inhibition curve was used to calculate the EC50. A compound was considered to be active in this test when it inhibited toxicity by more than 20% relative to untreated M17_3SYN cells at a concentration of 10 μM or lower.
What is called EC50 is the concentration that produces a half-maximal response. For `COc1ccc(S(=O)(=O)N2CCN(c3nc(COc4ccc(Cl)cc4)no3)CC2)cc1` [Cmpd200, 3-((4-Chlorophenoxy)methyl)-5-(4-((4-methoxyphenyl)sulfonyl)piperazin-1-yl)-1,2,4-oxadiazole], the EC50 came to 0.022 µM.
As to `CCCc1noc(N2CCN(S(=O)(=O)c3ccc(OC)cc3)CC2)n1` [Cmpd207, 5-(4-((4-Methoxyphenyl)sulfonyl)piperazin-1-yl)-3-propyl-1,2,4-oxadiazole], the 50% effective concentration (EC50) is 0.406 µM.
In the case of `CSc1ccc(S(=O)(=O)N2CCN(c3nc(CCC(F)(F)F)no3)CC2)cc1` [Cmpd172, 5-(4-((4-(Methylthio)phenyl)sulfonyl)piperazin-1-yl)-3-(3,3,3-trifluoropropyl)-1,2,4-oxadiazole] it was 0.166 µM.
As to `COc1ccc(S(=O)(=O)N2CCN(c3nc(COc4cccc(Cl)c4)no3)CC2)cc1` [Cmpd201, 3-((3-Chlorophenoxy)methyl)-5-(4-((4-methoxyphenyl)sulfonyl)piperazin-1-yl)-1,2,4-oxadiazole], the half-maximal effective concentration (EC50) is 0.011 µM.
Regarding `COc1ccc(S(=O)(=O)N2CCN(c3nc(C(C)(C)c4ccccc4)no3)CC2)cc1` [Cmpd197, 1-(4-Methoxy-benzenesulfonyl)-4-[3-(1-methyl-1-phenyl-ethyl)-[1,2,4]oxadiazol-5-yl]-piperazine], the EC50 stood at 0.002 µM.
As to `COc1ccc(S(=O)(=O)N2CCN(c3nc(C4(c5ccc(Cl)cc5)CC4)no3)CC2)cc1` [Cmpd138, 1-{3-[1-(4-Chloro-phenyl)-cyclopropyl]-[1,2,4]oxadiazol-5-yl}-4-(4-methoxy-benzenesulfonyl)-piperazine], the EC50 came out at 0.039 µM.
Regarding `COc1ccc(S(=O)(=O)N2CCN(c3nc(Cc4ccc(Cl)cc4)no3)CC2)cc1` [Cmpd052, 1-[3-(4-Chloro-benzyl)-[1,2,4]oxadiazol-5-yl]-4-(4-methoxy-benzenesulfonyl)-piperazine], the EC50 was 0.024 µM.
As for `O=S(=O)(c1ccc(OC(F)F)cc1)N1CCN(c2nc(C(F)(F)c3ccc(F)cc3)no2)CC1` [Cmpd148, 1-{3-[Difluoro-(4-fluoro-phenyl)-methyl]-[1,2,4]oxadiazol-5-yl}-4-(4-difluoromethoxy-benzenesulfonyl)-piperazine], the EC50 was found to be 0.034 µM.
With `COc1ccc(S(=O)(=O)N2CCN(c3nc(C4C[C@@H]5CC[C@H]4C5)no3)CC2)cc1` (stereo partly drawn) [Cmpd190, 3-((1S,4R)-bicyclo[2.2.1]heptan-2-yl)-5-(4-((4-methoxyphenyl)sulfonyl)piperazin-1-yl)-1,2,4-oxadiazole], the concentration for a half-maximal effect (EC50) stood at 0.215 µM.
`COc1ccc(S(=O)(=O)N2CCN(c3nc(CCC(F)(F)F)no3)CC2)cc1` [Cmpd171, 5-(4-((4-Methoxyphenyl)sulfonyl)piperazin-1-yl)-3-(3,3,3-trifluoropropyl)-1,2,4-oxadiazole]: the EC50 is 0.248 µM.
Turning to `CCOc1ccc(S(=O)(=O)N2CCN(c3nc(Cc4ccccc4)no3)CC2)cc1` [Cmpd038, 1-(3-Benzyl-[1,2,4]oxadiazol-5-yl)-4-(4-ethoxy-benzenesulfonyl)-piperazine], the concentration giving a half-maximal response (EC50) amounted to 0.013 µM.
For `COc1ccc(S(=O)(=O)N2CCN(c3nc(C(C)(C)C)no3)CC2)cc1` [Cmpd209, 3-(Tert-butyl)-5-(4-((4-methoxyphenyl)sulfonyl)piperazin-1-yl)-1,2,4-oxadiazole], the concentration for a half-maximal effect (EC50) is 0.296 µM.
As to `O=S(=O)(c1ccc(OC(F)(F)F)cc1)N1CCN(c2nc(Cc3cccc(F)c3)no2)CC1` [Cmpd087, 1-[3-(3-Fluoro-benzyl)-[1,2,4]oxadiazol-5-yl]-4-(4-trifluoromethoxy-benzenesulfonyl)-piperazine], the 50% effective concentration (EC50) turned out to be 0.497 µM.
The figure for `O=S(=O)(c1ccc(OC(F)F)cc1)N1CCN(c2nc(C(F)(F)c3ccc(Cl)cc3)no2)CC1` [Cmpd144, 1-{3-[(4-Chloro-phenyl)-difluoro-methyl]-[1,2,4]oxadiazol-5-yl}-4-(4-difluoromethoxy-benzenesulfonyl)-piperazine] is 0.145 µM; for `CSc1ccc(S(=O)(=O)N2CCN(c3nc(CC4CC4)no3)CC2)cc1` [Cmpd161, 3-(Cyclopropylmethyl)-5-(4-((4-(methylthio)phenyl)sulfonyl)piperazin-1-yl)-1,2,4-oxadiazole] it is 0.023 µM.
Turning to `O=S(=O)(c1ccc(OC(F)F)cc1)N1CCN(c2nc(Cc3ccc(F)c(F)c3)no2)CC1` [Cmpd101, 1-[3-(3,4-Difluoro-benzyl)-[1,2,4]oxadiazol-5-yl]-4-(4-difluoromethoxy-benzenesulfonyl)-piperazine], the concentration giving a half-maximal response (EC50) is 0.05 µM.
In the case of `CC[C@H](c1ccccc1)c1noc(N2CCN(S(=O)(=O)c3ccc(OC)cc3)CC2)n1` [Cmpd051, 1-(4-Methoxy-benzenesulfonyl)-4-[3-((R)-1-phenyl-propyl)-[1,2,4]oxadiazol-5-yl]-piperazine] it was 0.046 µM; in that of `O=S(=O)(c1cccc(C(F)(F)F)c1)N1CCN(c2nc(Cc3cccc(F)c3)no2)CC1` [Cmpd088, 1-[3-(3-Fluoro-benzyl)-[1,2,4]oxadiazol-5-yl]-4-(3-trifluoromethyl-benzenesulfonyl)-piperazine], 1.84 µM.
The figure for `COc1ccc(S(=O)(=O)N2CCN(c3nc(C(F)(F)c4ccc(Cl)cc4)no3)CC2)cc1` [Cmpd142, 1-{3-[(4-Chloro-phenyl)-difluoro-methyl]-[1,2,4]oxadiazol-5-yl}-4-(4-methoxy-benzenesulfonyl)-piperazine] is 0.024 µM; for `CCOc1ccc(S(=O)(=O)N2CCN(c3nc(C(C)(C)c4ccc(F)cc4)no3)CC2)cc1` [Cmpd115, 1-(4-Ethoxy-benzenesulfonyl)-4-{3-[1-(4-fluoro-phenyl)-1-methyl-ethyl]-[1,2,4]oxadiazol-5-yl}-piperazine] it is 0.054 µM; for `CCOc1ccc(S(=O)(=O)N2CCN(c3nc(C(C)(C)c4cccc(Cl)c4)no3)CC2)cc1` [Cmpd153, 1-{3-[1-(3-Chloro-phenyl)-1-methyl-ethyl]-[1,2,4]oxadiazol-5-yl}-4-(4-ethoxy-benzenesulfonyl)-piperazine] it is 0.005 µM.
`CCOc1ccc(S(=O)(=O)N2CCN(c3nc(CC(F)(F)F)no3)CC2)cc1` [Cmpd166, 5-(4-((4-Ethoxyphenyl)sulfonyl)piperazin-1-yl)-3-(2,2,2-trifluoroethyl)-1,2,4-oxadiazole]: the concentration for a half-maximal effect (EC50) came to 0.368 µM.
On to `CCOc1ccc(S(=O)(=O)N2CCN(c3nc(C(F)(F)c4ccc(Cl)cc4)no3)CC2)cc1` [Cmpd143, 1-{3-[(4-Chloro-phenyl)-difluoro-methyl]-[1,2,4]oxadiazol-5-yl}-4-(4-ethoxy-benzenesulfonyl)-piperazine], for which the concentration giving a half-maximal response (EC50) stood at 0.025 µM.
In the case of `Cc1ccc(-c2noc(N3CCN(S(=O)(=O)c4ccc(C(F)(F)F)cc4)CC3)n2)cc1` [Cmpd016, 3-(p-Tolyl)-5-(4-((4-(trifluoromethyl)phenyl)sulfonyl)piperazin-1-yl)-1,2,4-oxadiazole], the EC50 was found to be 0.009 µM.
As for `COc1ccc(S(=O)(=O)N2CCN(c3nc(Cc4ccccc4)no3)CC2)cc1` [Cmpd037, 1-(3-Benzyl-[1,2,4]oxadiazol-5-yl)-4-(4-methoxy-benzenesulfonyl)-piperazine], the half-maximal effective concentration (EC50) was 0.003 µM.
For the compound `O=S(=O)(c1ccc(OC(F)F)cc1)N1CCN(c2nc(CC(F)(F)F)no2)CC1` [Cmpd167, 5-(4-((4-(Difluoromethoxy)phenyl)sulfonyl)piperazin-1-yl)-3-(2,2,2-trifluoroethyl)-1,2,4-oxadiazole], the EC50 worked out at 10 µM.
The figure for `O=S(=O)(c1ccc(OC(F)F)cc1)N1CCN(c2nc(Cc3cccc(Cl)c3)no2)CC1` [Cmpd074, 1-[3-(3-Chloro-benzyl)-[1,2,4]oxadiazol-5-yl]-4-(4-difluoromethoxy-benzenesulfonyl)-piperazine] is 0.01 µM.
On to `O=S(=O)(c1ccc(OC(F)F)cc1)N1CCN(c2nc(CC3CC3)no2)CC1` [Cmpd160, 3-(Cyclopropylmethyl)-5-(4-((4-(difluoromethoxy)phenyl)sulfonyl)piperazin-1-yl)-1,2,4-oxadiazole], for which the EC50 is 0.148 µM.
For the compound `CCOc1ccc(S(=O)(=O)N2CCN(c3nc(Cc4cccc(F)c4)no3)CC2)cc1` [Cmpd091, 1-(4-Ethoxy-benzenesulfonyl)-4-[3-(3-fluoro-benzyl)-[1,2,4]oxadiazol-5-yl]-piperazine], the EC50 was 0.057 µM.
